One molecule from patent US20260199294A1, “PEPTIDE DRUG CONJUGATES” (Oncopeptides Innovation AB, priority 2022, published 2026) can be followed below.

“Also recorded” adds a separate entry of the source.

Data set [1] relates to SU-DHL-4 human lymphoma cell line xenografts. Description: Chicken embryo (in ovo) xenograft model, tumour weight. As to conditions: 8.4, 33.5, 167.5 μM. The class given is in vivo. On the procedure:
Methods: Inoculation of Fertilized White Leghorn eggs was performed with 3×10^6 SU-DHL-4 tumour cells on day 9 (post-fertilisation). Viable eggs were injected with 100 μL of either Example compound 1 (8.4 μM (0.008 mg/kg), 33.5 μM (0.033 mg/kg), 167.5 μM (0.164 mg/kg)), bendamustine (8.4 μM (0.005 mg/kg), 33.5 μM (0.02 mg/kg), 167.5 μM (0.1 mg/kg)) or vehicle on day 11, 13, 15 and 17. On day 18, tumours were removed and weighed.

Data set [2] has as its system BJ Fibroblasts (normal cells). The data set is described as follows: In vitro cytotoxicity (CellTiter-Glo, 72 h) in BJ fibroblasts. The class given is cell-based, human. The protocol:
All cells were cultivated in RPMI medium 1640 (IX). All media was supplemented with […] penicillin/streptomycin, 10% heat inactivated FBS, 0.1 mM Sodium Pyruvate, 1×MEM NEAA (ThermoFisher) and 1 mM HEPES. The DERL-2 cells had higher FBS (20%) and 40 ng/mL IL-2 was added. hPBMCs were thawed and allowed to acclimatise overnight and then stimulated with 10 µg/mL PHA-M and 40 ng/mL IL-2 for 4 hours before being exposed to test compounds. All cells, except for hPBMCs, were grown to reach log phase before being exposed to the test compounds.
Test compounds were dissolved in 100% DMSO and added to a 384 assay plate. Additional DMSO was added to maintain the same final DMSO concentration (0.2%) in all wells. 25 μL cell suspension with a concentration of 100000 cells/mL was added to each well. The cells were cultured in a CO2 incubator at 37° C. for 72 h. Plates were equilibrated to room temperature for 30 minutes before adding 20 μL CellTiter-Glo® 2.0 (Promega) reagent to all wells. The plate was then allowed to stabilize for 20 minutes before recording the luminescence (Em filter 700 nm) in an Envision plate reader.
Background: ATP-based viability assays read luminescence as a measure of living cells.

A word on the IC50: it is the point on the concentration scale where inhibition reaches its midpoint. A high value points to weaker potency. Take `CCOC(=O)[C@H](CC(C)C)NC(=O)[C@@H](N)CCc1nc2cc(N(CCCl)CCCl)ccc2n1C` [Example compound 1, Ethyl (2S)-2-[[(2S)-2-amino-4-[5-[bis(2-chloroethyl)amino]-1-methyl-benzimidazol-2-yl]butanoyl]amino]-4-methyl-pentanoate]: the “effect on tumour weight / tumour growth (in words)” value in data set [1] is reported as “dose dependent effect on tumour weight; also recorded: particularly effective at inhibiting tumor growth”. This molecule also gave an IC50 in data set [2] of 1070 nM.
